Data reported in patent US20110076686A1 (priority 2008, published 2011).

Test system: Legionella pneumophila
Format: cell-based
Conditions: DVC step

Row | SMILES | effectiveness as DNA gyrase inhibitor / cellular proliferation inhibitor | elongation of Legionella pneumophila cells and blocking of division
1 | CC1=C(C(=O)O)N2C(=O)[C@@H](NC(=O)[C@H](N)c3ccccc3)[C@H]2SC1 [cephalexin] | very effective DNA gyrase inhibitors | allow the Legionella pneumophila cells to elongate in preparation for cell division but actually block these elongated cells from dividing
2 | O=C(O)c1cn(C2CC2)c2cc(N3CCNCC3)c(F)cc2c1=O [ciprofloxacin, Ciprofloxacin] | very effective DNA gyrase inhibitors | allow the Legionella pneumophila cells to elongate in preparation for cell division but actually block these elongated cells from dividing
3 | CCn1cc(C(=O)O)c(=O)c2ccc(C)nc21 [nalidixic acid] | not a reliably effective DNA gyrase inhibitor | does not provide sufficient elongation
